Measurements reported in patent US10392404B2, “Compounds and compositions as kinase inhibitors” (NOVARTIS AG, priority 2014, dated 2019).

Key:
b-Raf (V600E) = molecular target: T1, b-Raf (V600E) (Homo sapiens, UniProt P15056, V600E); test: In vitro Raf activity determination (Alpha Screen, biotinylated kinase-dead MEK1 substrate), B-Raf; format: biochemical; settings: b-Raf (V600E) approximately 4 pM; ATP 10 μM; pre-incubation 60 minutes; reaction 3 hours at room temperature
T1 construct: made in house
Method in brief: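 IC50 from non-linear regression of AlphaScreen phospho-MEK signal (anti-p-MEK1/2 antibody). b-Raf(V600E), about 4 pM, phosphorylated ~10 nM biotinylated K97R MEK1 with 10 μM ATP for 3 h at room temperature after 60 min compound pre-incubation; buffer pH 7.5 Tris, 15 mM MgCl2, 1 mM DTT.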

C-RAF = molecular target: T2, C-RAF (Homo sapiens, UniProt P04049, Y340E/Y341E); test: In vitro Raf activity determination (Alpha Screen, biotinylated kinase-dead MEK1 substrate), C-Raf; format: biochemical; settings: c-Raf approximately 4 nM; ATP 1 μM; pre-incubation 60 minutes; reaction 1 hour at room temperature
T2 construct: His tag (implied by nickel chromatography) (cleaved yes); StrepII tag (cleaved yes); made in house; host or cells: Sf9 insect cells (baculovirus), CRAF and h14-3-3 zeta co-expressed; MEK1 substrate from E. coli
Method in brief: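 AlphaScreen read-out of MEK phosphorylation using an anti-phospho-MEK1/2 antibody after a 1 hour room-temperature reaction at 1 μM ATP. Enzyme: approximately 4 nM Sf9-expressed full-length activated C-Raf (Y340E/Y341E, with 14-3-3ζ) on approximately 10 nM biotinylated K97R MEK1, after 60 min compound preincubation. IC50 by non-linear fit.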

T2 sequence (P04049 whole entry Y340E/Y341E): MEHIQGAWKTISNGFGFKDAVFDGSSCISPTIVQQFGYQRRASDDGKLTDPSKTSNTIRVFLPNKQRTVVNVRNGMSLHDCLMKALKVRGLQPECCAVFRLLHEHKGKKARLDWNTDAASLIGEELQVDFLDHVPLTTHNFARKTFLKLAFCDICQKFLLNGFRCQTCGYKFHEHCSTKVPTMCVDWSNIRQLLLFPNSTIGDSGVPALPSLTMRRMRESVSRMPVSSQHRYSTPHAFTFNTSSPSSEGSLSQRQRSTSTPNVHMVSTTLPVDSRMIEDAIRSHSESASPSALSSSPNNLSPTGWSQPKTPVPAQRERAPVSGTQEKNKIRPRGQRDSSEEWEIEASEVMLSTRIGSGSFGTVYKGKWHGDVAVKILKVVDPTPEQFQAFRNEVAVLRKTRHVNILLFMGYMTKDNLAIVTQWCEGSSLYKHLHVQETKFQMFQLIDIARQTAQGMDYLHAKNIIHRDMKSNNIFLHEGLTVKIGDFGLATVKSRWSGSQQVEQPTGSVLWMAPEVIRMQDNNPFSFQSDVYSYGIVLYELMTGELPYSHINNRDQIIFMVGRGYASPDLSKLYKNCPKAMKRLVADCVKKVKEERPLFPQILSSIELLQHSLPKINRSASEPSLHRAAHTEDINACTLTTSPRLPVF
T2 sequence (P63104 whole entry partner): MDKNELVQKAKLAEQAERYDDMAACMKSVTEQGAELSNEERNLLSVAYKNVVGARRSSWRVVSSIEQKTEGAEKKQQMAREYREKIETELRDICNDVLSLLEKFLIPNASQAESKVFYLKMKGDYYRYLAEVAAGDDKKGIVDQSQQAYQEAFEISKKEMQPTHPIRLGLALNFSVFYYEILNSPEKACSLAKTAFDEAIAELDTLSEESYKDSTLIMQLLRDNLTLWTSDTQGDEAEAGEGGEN
T1 sequence (P15056 whole entry V600E): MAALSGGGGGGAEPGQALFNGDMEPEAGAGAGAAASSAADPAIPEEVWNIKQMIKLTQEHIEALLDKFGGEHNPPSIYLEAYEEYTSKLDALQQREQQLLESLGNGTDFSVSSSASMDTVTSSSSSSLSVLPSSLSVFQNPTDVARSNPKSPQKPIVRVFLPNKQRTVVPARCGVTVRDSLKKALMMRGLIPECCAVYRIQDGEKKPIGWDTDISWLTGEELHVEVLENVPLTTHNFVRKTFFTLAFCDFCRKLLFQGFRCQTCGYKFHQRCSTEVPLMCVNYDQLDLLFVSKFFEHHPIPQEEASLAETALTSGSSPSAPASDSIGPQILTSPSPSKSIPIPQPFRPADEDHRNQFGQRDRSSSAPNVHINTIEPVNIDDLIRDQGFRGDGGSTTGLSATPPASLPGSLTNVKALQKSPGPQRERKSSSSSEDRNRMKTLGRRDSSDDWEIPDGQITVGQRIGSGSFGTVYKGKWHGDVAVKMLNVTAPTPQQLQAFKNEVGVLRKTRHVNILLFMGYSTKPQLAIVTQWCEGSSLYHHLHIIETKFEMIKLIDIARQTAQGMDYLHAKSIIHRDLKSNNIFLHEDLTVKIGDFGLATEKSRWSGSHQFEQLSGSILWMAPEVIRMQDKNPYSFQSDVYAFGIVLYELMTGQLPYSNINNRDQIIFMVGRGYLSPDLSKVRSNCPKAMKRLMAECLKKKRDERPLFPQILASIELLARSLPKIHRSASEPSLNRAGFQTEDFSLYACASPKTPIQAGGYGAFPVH

Row | SMILES | IC50 (b-Raf (V600E)) | IC50 (C-RAF)
1 | Cc1ccc(NC(=O)c2cccc(S(C)(=O)=O)c2)cc1-c1cnc(N2CCOCC2)c(C#N)c1 [Example 157, N-(3-(5-cyano-6-morpholinopyridin-3-yl)-4-methylphenyl)-(methylsulfonyl) benzamide] | 0.304 nM | 0.0559 nM
2 | Cc1ncc(NC(=O)c2cccc(C(F)(F)F)c2)cc1-c1cnc(N2CCOCC2)c(C#N)c1 [Example 66, N-(5′-cyano-2-methyl-6′-morpholino-[3,3′-bipyridin]-5-yl)-3-(trifluoromethyl) benzamide] | 0.852 nM | 0.203 nM
3 | Cc1ncc(NC(=O)c2cc(C3CC3)on2)cc1-c1cnc(N(C)C)c(C#N)c1 [Example 262, N-(5′-cyano-6′-(dimethylamino)-2-methyl-[3,3′-bipyridin]-5-yl)-5-cyclopropylisoxazole-3-carboxamide] | 10.9 nM | 2.16 nM
4 | Cc1ncc(NC(=O)c2cccc(C(F)F)c2)cc1-c1cnc(N2CC(C)(O)C2)c(C#N)c1 [Example 184, N-(5′-cyano-6′-(3-hydroxy-3-methylazetidin-1-yl)-2-methyl-[3,3′-bipyridin]-5-yl)-3-(difluoromethyl) benzamide] | 7.88 nM | 1.14 nM
5 | CCNc1ncc(-c2cc(NC(=O)c3ccnc(C(F)(F)F)c3)ccc2C)cc1C#N [Example 24, N-(3-(5-cyano-6-(ethylamino)pyridin-3-yl)-4-methylphenyl)-2-(trifluoromethyl) isonicotinamide] | 0.805 nM | 0.123 nM
6 | Cc1ncc(NC(=O)c2ccnc(C3(C#N)CC3)c2)cc1-c1cnc(C2CCOCC2)c(C#N)c1 [Example 148, N-(5'-cyano-2-methyl-6'-(tetrahydro-2H-pyran-4-yl)-[3,3'-bipyridin]-5-yl)-2-(1-cyanocyclopropyl) isonicotinamide] | 3.34 nM | 0.731 nM
7 | COc1ncc(-c2cc(NC(=O)c3cccc(C(F)(F)F)c3)ccc2C)cc1C#N [Example 37, N-(3-(5-cyano-6-methoxypyridin-3-yl)-4-methylphenyl)-3-(trifluoromethyl) benzamide] | 1.3 nM | 0.16 nM
8 | Cc1ccc(NC(=O)c2cccc(C(F)F)c2)cc1-c1cnc(N2CCNCC2)c(C#N)c1 [Example 163, N-(3-(5-cyano-6-(piperazin-1-yl)pyridin-3-yl)-4-methylphenyl)-3-(difluoromethyl) benzamide] | 0.901 nM | 0.125 nM
9 | CCNc1ncc(-c2cc(NC(=O)c3cccc(C(F)(F)F)c3)ccc2C)cc1C#N [Example 23, N-(3-(5-cyano-6-(ethylamino)pyridin-3-yl)-4-methylphenyl)-3-(trifluoromethyl) benzamide] | 1.46 nM | 0.247 nM
10 | COc1ncc(-c2cc(NC(=O)c3ccnc(C(C)(C)C#N)c3)ccc2C)cc1C#N [Example 36, N-(3-(5-cyano-6-methoxypyridin-3-yl)-4-methylphenyl)-2-(2-cyanopropan-2-yl)isonicotinamide] | 2.76 nM | 0.479 nM
11 | Cc1ccc(NC(=O)c2cc(C(F)(F)F)ccn2)cc1-c1cnc(NC2CCOCC2)c(C#N)c1 [Example 226, N-(3-(5-cyano-6-((tetrahydro-2H-pyran-4-yl)amino)pyridin-3-yl)-4-methylphenyl)-4-(trifluoromethyl) picolinamide] | 2 nM | 0.695 nM
12 | CCn1cc(C(=O)Nc2cnc(C)c(-c3cnc(N(C)C)c(C#N)c3)c2)c(C)n1 [Example 263, N-(5′-cyano-6′-(dimethylamino)-2-methyl-[3,3′-bipyridin]-5-yl)-1-ethyl-3-methyl-1H-pyrazole-4-carboxamide] | 884 nM | 55.3 nM
13 | Cc1ccc(NC(=O)c2ccnc(C(F)(F)F)c2)cc1-c1cnc(-c2cnn(C)c2)c(C#N)c1 [Example 124, N-(3-(5-cyano-6-(1-methyl-1H-pyrazol-4-yl)pyridin-3-yl)-4-methylphenyl)-2-(trifluoromethyl) isonicotinamide] | 0.427 nM | 0.0746 nM
14 | Cc1ccc(NC(=O)c2ccnc(C(C)(C)O)c2)cc1-c1cnc(N2CCOCC2)c(C#N)c1 [Example 165, N-(3-(5-cyano-6-morpholinopyridin-3-yl)-4-methylphenyl)-2-(2-hydroxypropan-2-yl)isonicotinamide] | 1.24 nM | 0.356 nM
15 | Cc1ccc(NC(=O)c2ccnc(C(C)(C)C#N)c2)cc1-c1cnc(C2CCOCC2)c(C#N)c1 [Example 137, N-(3-(5-cyano-6-(tetrahydro-2H-pyran-4-yl)pyridin-3-yl)-4-methylphenyl)-2-(2-cyanopropan-2-yl)isonicotinamide] | 1.98 nM | 0.476 nM

Further molecules by falling IC50 (b-Raf (V600E)), results first:

Row | IC50 (b-Raf (V600E)) | IC50 (C-RAF) | SMILES
16 | 196 nM | 17.6 nM | Cc1ccc(NC(=O)c2cn(C)nc2C)cc1-c1cnc(N(C)C)c(C#N)c1 [Example 252, N-(3-(5-cyano-6-(dimethylamino)pyridin-3-yl)-4-methylphenyl)-1,3-dimethyl-1H-pyrazole-4-carboxamide]
17 | 60.8 nM | 6.55 nM | Cc1ccc(NC(=O)c2ccnc(C(C)(C)C#N)c2)cc1-c1cnc(N)c(C#N)c1C [Example 9, N-(3-(6-amino-5-cyano-4-methylpyridin-3-yl)-4-methylphenyl)-2-(2-cyanopropan-2-yl)isonicotinamide]
18 | 10.9 nM | 1.82 nM | Cc1ncc(NC(=O)c2cnnc(C(C)(C)C#N)c2)cc1-c1cnc(NC2CCOCC2)c(C#N)c1 [Example 205, N-(5′-cyano-2-methyl-6′-((tetrahydro-2H-pyran-4-yl)amino)-[3,3′-bipyridin]-5-yl)-6-(2-cyanopropan-2-yl)pyridazine-4-carboxamide]
19 | 8.05 nM | 1.28 nM | Cc1ccc(NC(=O)c2ccnc(C(C)(C)O)c2)cc1-c1cnc(N2CC(C)(O)C2)c(C#N)c1 [Example 215, N-(3-(5-cyano-6-(3-hydroxy-3-methylazetidin-1-yl)pyridin-3-yl)-4-methylphenyl)-2-(2-hydroxypropan-2-yl)isonicotinamide]
20 | 5.61 nM | 0.284 nM | Cc1ccc(NC(=O)c2cccc(C(F)(F)F)c2)cc1-c1cc(C#N)cnc1N [Example 13, N-(3-(2-amino-5-cyanopyridin-3-yl)-4-methylphenyl)-3-(trifluoromethyl) benzamide]
21 | 3.87 nM | 2.23 nM | Cc1ncc(NC(=O)c2cc(C(C)(C)O)ccn2)cc1-c1cnc(N2CCOCC2)c(C#N)c1 [Example 234, N-(5′-cyano-2-methyl-6′-morpholino-[3,3′-bipyridin]-5-yl)-4-(2-hydroxypropan-2-yl)picolinamide]
22 | 3.79 nM | 0.435 nM | Cc1ccc(NC(=O)c2cc(C3CC3)on2)cc1-c1cnc(N(C)C)c(C#N)c1 [Example 259, N-(3-(5-cyano-6-(dimethylamino)pyridin-3-yl)-4-methylphenyl)-5-cyclopropylisoxazole-3-carboxamide]
23 | 3.61 nM | 0.792 nM | Cc1ccc(NC(=O)c2ccnc(C(C)(C)O)c2)cc1-c1cnc(C2CCOCC2)c(C#N)c1 [Example 140, N-(3-(5-cyano-6-(tetrahydro-2H-pyran-4-yl)pyridin-3-yl)-4-methylphenyl)-2-(2-hydroxypropan-2-yl)isonicotinamide]
24 | 2.79 nM | 0.344 nM | Cc1ncc(NC(=O)c2cnnc(C(F)(F)F)c2)cc1-c1cnc(N2CCOCC2)c(C#N)c1 [Example 142, N-(5′-cyano-2-methyl-6′-morpholino-[3,3′-bipyridin]-5-yl)-6-(trifluoromethyl) pyridazine-4-carboxamide]
25 | 2.25 nM | 0.333 nM | Cc1ncc(NC(=O)c2cc(C(C)(F)F)ccn2)cc1-c1cnc(N2CCOCC2)c(C#N)c1 [Example 238, N-(5′-cyano-2-methyl-6′-morpholino-[3,3′-bipyridin]-5-yl)-4-(1,1-difluoroethyl) picolinamide]
26 | 1 nM | 0.219 nM | Cc1ccc(NC(=O)c2cc(C(F)(F)F)ccn2)cc1-c1cnc(N2CCOCC2)c(C#N)c1 [Example 222, N-(3-(5-cyano-6-morpholinopyridin-3-yl)-4-methylphenyl)-4-(trifluoromethyl) picolinamide]
27 | 0.71 nM | 0.106 nM | Cc1ccc(NC(=O)c2ccnc(S(C)(=O)=O)c2)cc1-c1cnc(N(C)C)c(C#N)c1 [Example 261, N-(3-(5-cyano-6-(dimethylamino)pyridin-3-yl)-4-methylphenyl)-2-(methylsulfonyl) isonicotinamide]
28 | 0.509 nM | 0.194 nM | Cc1ccc(NC(=O)c2ccnc(C(F)(F)F)c2)cc1-c1cnc(NC2CCOCC2)c(C#N)c1 [Example 61, N-(3-(5-cyano-6-((tetrahydro-2H-pyran-4-yl)amino)pyridin-3-yl)-4-methylphenyl)-2-(trifluoromethyl) isonicotinamide]
29 | 0.507 nM | 0.154 nM | Cc1ccc(NC(=O)c2ccnc(C(F)F)c2)cc1-c1cnc(NC2CCOCC2)c(C#N)c1 [Example 169, N-(3-(5-cyano-6-((tetrahydro-2H-pyran-4-yl)amino)pyridin-3-yl)-4-methylphenyl)-2-(difluoromethyl) isonicotinamide]
30 | 0.263 nM | 0.0395 nM | Cc1ccc(NC(=O)c2ccnc(C3CC3)c2)cc1-c1cnc(N2CCOCC2)c(C#N)c1 [Example 155, N-(3-(5-cyano-6-morpholinopyridin-3-yl)-4-methylphenyl)-2-cyclopropyl-isonicotinamide]
